Experiments:
[1] = system: NF-κB; experiment: Western blot for S276 phosphorylation of NF-κB, HaCaT cells; assay type: cell-based, Human; details: 20 μM carnosol, 6 h post UVB
Experimental: FIGS. 7A-7F: Carnosol inhibited UVB-induced NF-κB activation. Cells were exposed to UVB radiation in the presence or absence of carnosol. Cells were lysed at indicated time point and protein levels were measured by western blot analysis. (FIG. 7A) Western blot for IκB protein level in HaCaT cells at 2, 4 h post UVB radiation at 1, 10 or 20 μM carnosol treatment. (FIG. 7B) Western blot analysis for IκB protein level in HaCaT cells at 6 h post UVB radiation in the presence or absence of carnosol. (FIG. 7C) Western blot analysis for IκB protein level in MEF cells at 6 h post UVB radiation in the presence or absence of carnosol. (FIG. 7D) Western blot for 5276 site phosphorylation of NF-κB in HaCaT cells at 6 h post UVB with indicated carnosol concentration. (FIG. 7E) EMSA assay for HaCaT cells at 2, 4, 6 h post UVB radiation in the presence or absence of carnosol (20 μM). (FIG. 7F) Statistical analysis of the EMSA assay using two to three sets of independent experiments. *p<0.05 versus control group, **p<0.05 versus UV group at indicated time point.
Cells were lysed with Nonidet P-40 (NP-40) lysis buffer (2% NP-40, 80 mM NaCl, 100 mM Tris-HCl pH 8.0, 0.1% SDS) with proteinase inhibitor mixture (Complete™, Roche Molecular Biochemicals) at indicated time point. […] Protein concentration was measured by Protein DC Assay kit (Bio-Rad Laboratories). […]

[2] = system: normal skin cells; experiment: Cell proliferation with carnosol or its decomposed molecules (FIG. 11); assay type: cell-based
Experimental: FIG. 11. The effect of carnosol or its decomposed molecules on cell proliferation was determined.
UVB was generated from a Bench XX-Series UV Lamp (UVP Inc.) equipped with two 15-watt UVB tubes (UVP Inc.). The intensity of UVB was calibrated by a UVP model UVX digital radiometer (UVP Inc.) after the lamps warmed up for 5 min. For irradiating cells, the dose rate for 8 mJ/cm^2 or 50 mJ/cm^2 of UVB radiation was 0.8 or 3.8 mW/s respectively. Medium was removed before exposing the cells to UVB. After UVB radiation, fresh medium was added to the culture plates with or without drugs, and the cells were continue incubating at 37° C. with 5% CO2 until further analysis. Carnosol was disovled in DMSO and was irradiated with 50 mJ/cm^2 of UVB radiation at a dose rate of 3.8 mW/s before subjecting to cells or structure analysis using Mass Spectrum.

[3] = system: HaCaT cells; experiment: HaCaT transformation in soft agar after repeated UVB; assay type: cell-based, Human; details: 10 mJ/cm^2 UVB every 48 h for 14 days, soft agar 10 days; UVB alone about 3.5 fold
Experimental: FIG. 8: Carnosol decreases HaCaT transformation rate upon UVB radiation. HaCaT cells were exposed to 10 mJ/cm^2 UVB radiation every 48 h for 14 days. Cells were then collected and equal amount of cells were then re-seeded into 96 well plate with soft agar. After 10 days of incubation, cells were stained and dissolved and the fluorescent intensity was determined. *p<0.05 versus control group, **p<0.05 versus UV group.
HaCaT cells were exposed to 10 mJ/cm^2 UVB radiation every 48 h for 14 days. As only cancerous cells can survive in the soft-agar, by staining the survival cells with fluorescent dye, the cell transformation rate was determined.

[4] = system: A431 human squamous carcinoma cell; experiment: MTT cell viability assay, A431; assay type: cell-based; details: A431, carnosol plus 50 mJ/cm^2 UVB, 24 h, vs no treatment control; UVB alone about 50%
Experimental: FIGS. 9A-9B. Carnosol decreases A431 cancer cell progression. Squamous carcinoma cell A431 was used to determine the effect of carnosol on cancer cell progression. (FIG. 9A) Effect of carnosol on cell viability. Cells were treated upon 50 mJ/cm^2 UVB radiation with or without carnosol treatment. After 24 h, cells were collect and MTT assay was performed to determine the cell viability. *p<0.05 versus control group, **p<0.05 versus UV group at indicated time point. (FIG. 9B) Effect of carnosol on clonogenic assay. Cells were exposed to 8 mJ/cm^2 UVB exposure in the presence or absence of carnosol. 5×10^3 cells were plated into 6 well plate immediately after treatment and incubated for […]. The error bars present the standard deviation of three sets of independent experiments. *p<0.05 versus control group, **p<0.05 versus UV group at indicated time point.
Since carnosol protects cell death upon UVB radiation, how carnosol affects skin cancer cells was also determined. A431 human squamous carcinoma cell was used as it is one of the cancer types that keratinocyte would develop. Cell viability was determined by MTT assay.

With `CC(C)c1cc2c(c(O)c1O)[C@@]13CCCC(C)(C)[C@@H]1C[C@@H]2OC3=O` [carnosol] the “phosphorylation of NF-κB at Serine 276 (S276)” value [1] was “reduces the phosphorylation”, the “protection of the UVB-irradiated cells (proliferation)” value [2] was “partial protection” and the “cell proliferation / cell growth in normal skin cells” value ([2]; without UVB protection context) was “some effect in inhibiting cell proliferation”. For the same compound, the cell transformation [3] was “about 2.2 fold” and the cell viability [4] was 30%.
